# According to patent publication US20260053837A1, “NICOTINAMIDE-RIBOSIDE AND PTEROSTILBENE COMBINATIONS TO TREAT OSTEOARTHRITIS” (The Regents of the University of California, priority 2022, published 2026):
# Legend:
# injury-induced OA model = test: pain behavior in injury-induced OA model (DMM surgery; Von Frey test, static weight bearing); format: in vivo, mice; settings: NR 400 mg/kg/day, PT 80 mg/kg/day
# Protocol: In vivo studies were designed to determine if oral supplementation of NR+PT (5:1) with NR at 400 mg/kg/day (the commonly used dose in animal studies) and PT at 80 mg/kg/day is better than NR alone (400 mg/kg/day) or PT alone (80 mg/kg/day), in limiting cartilage degradation and reducing pain in an injury-induced OA model. […] Because synergistic or additive effect of NR+PT combination was not initially observed, in vitro studies tested the combination of NR and PT at different ratio (NR:PT, 1:1, 2:1, 4:1, 6:1) and different concentrations (based on PT concentration at 25, 50 and 100 uM) on chondrocyte response to IL-1beta. Because IL-1b is known to induce nitric oxide (NO) production in chondrocytes, NO release (measured from the conditioned media) was used as a readout. It was determined that NR+PT at 2:1 ratio had the best efficacy in inhibition of IL-1b induced NO release, particularly for NR at 0.1 mM and PT at 0.05 mM. […] See, FIGS. 1 and 2. C57BL/6J mice at 12 weeks of age were subjected to joint injury via destabilization of medial meniscus (DMM) surgery through transection of meniscotibial ligament. Sham surgery (just skin incision) was performed on separate group of mice. […] Pain-like behaviors was evaluated at baseline (1 weeks before the surgery) and 2, 4, 6, 8 and 10 weeks after DMM surgery. • 1. […]
# [1] = cited from earlier work
smiles,measurement,setting,value
"NC(=O)c1ccc[n+]([C@@H]2O[C@H](CO)[C@@H](O)[C@H]2O)c1 [NR, nicotinamide riboside]","efficacy on pain, comparison among treatment groups","injury-induced OA model; NR+PT 5:1, gavage daily",slightly better efficacy
same,pain compared to the non-treated controls,"injury-induced OA model; NR+PT 5:1, gavage daily after DMM surgery",significantly less pain
same,reduction of conversion of NR to NAM,[1]; germ-free mice after oral intake,3 fold
same,stability of NR in gut and circulation,"[1]; mouse, in vivo",rapidly degraded to NAM
